Experimental data: patent publication US20260069621A1, “Pentagalloyl glucose (PGG) for use in treatment of pulmonary hypertension” (Charité - Universitaetsmedizin Berlin, priority 2021, published 2026)

Assays:
rat AAA model = settings: local application; cited from earlier work
human PAs [1] = assay: Ex vivo culture of human PAs followed by uniaxial tensile test; settings: 0.1% PGG
Procedure: Uniaxial tensile test. Following harvesting, human PA samples were kept in normal saline on ice and assessed for biomechanics within 2-4 h. […] Loose connective and adipose tissue were carefully removed, and sample dimensions (length and width) were measured using a digital caliper. The circumferential tensile properties of PAs were assessed using a MyoDynamics Muscle Strip Myograph System (840DM, Danish Myo Technology, Hinnerup, Denmark) with controlled temperature (37° C.) and aeration. To this end, circumferential rectangular sections (2×8 mm) were excised from the pulmonary trunk and mounted at 5 mm length. […] From force-displacement curves, the following parameters were derived: stiffness of elastin (k1)- and collagen (k2)-enriched arterial material (calculated as the slopes of the toe- and linear regions, respectively), with stiffness (k, mN/mm) reflecting the resistance to deformation (ΔF/ΔL) generated by the respective material, and the strain at which the transition of load-bearing elements from elastin to collagen occurred (εTrans), defined based on force-displacement curve characteristics as the strain applied when F reached 100 mN.
Effects of PGG on PA biomechanics. The effect of PGG on PA biomechanical properties was assessed by ex vivo culture of PA specimens followed by uniaxial tensile testing. […]

[2] = concentrations similar to 0.1%; cited from earlier work
human PAs [3] = assay: Ex vivo culture of human PAs with or without elastase, EVG staining of elastic fibers
Procedure: Effects of PGG on PA biomechanics. The effect of PGG on PA biomechanical properties was assessed by ex vivo culture of PA specimens followed by uniaxial tensile testing. Freshly isolated PAs were handled under sterile conditions. One piece of the artery was excised and directly underwent uniaxial tensile testing to record PA biomechanics at baseline. The rest of the PA was prepared as 2×8-mm strips and placed in a 12-well plate for ex vivo culture in serum-free Dulbecco's modified Eagle's medium (DMEM, Gibco) supplied with penicillin-streptomycin (Thermo Fisher) at 37° C. with controlled humidity at 21% O2 and 5% CO2. PGG (penta-O-galloyl-β-D-glucose hydrate, Sigma-Aldrich) was dissolved in dimethyl sulfoxide (DMSO, Sigma-Aldrich) as a stock solution and added to the medium at a final concentration of 0.1%. […] The following four treatment conditions were tested: control, elastase only, PGG only and PGG prior to elastase. PGG treatment was performed for 1 h at 37° C. prior to culturing PAs for 24 h in the presence or absence of elastase. Control samples were incubated with the corresponding concentrations of DMSO. Histology. Human or rat PA samples were cryo-embedded in OCT Compound (Tissue-Tek) and sliced into 10 μm transverse sections on a Microm HM560 cryostat. […] EVG staining was quantified based on positively stained area on single-plane images using Fiji-ImageJ.

Elastic fibers (EVG staining) after elastase treatment (human PAs [3]; 0.1% PGG, 1 U porcine elastase for 24 h): partially preserved
Elastin content (human PAs [3]; naïve PAs and PAs treated with elastase): increased elastin content
Structure (SMILES): O=C(OC[C@H]1O[C@@H](OC(=O)c2cc(O)c(O)c(O)c2)[C@H](OC(=O)c2cc(O)c(O)c(O)c2)[C@@H](OC(=O)c2cc(O)c(O)c(O)c2)[C@@H]1OC(=O)c1cc(O)c(O)c(O)c1)c1cc(O)c(O)c(O)c1 [PGG, 1,2,3,4,6-Penta-O-galloyl-β-D-glucose]
Aneurysmal expansion (rat AAA model): reduce
Elastic fiber degeneration (rat AAA model): effectively decrease
εTrans in uniaxial tensile tests (human PAs [1]; elastase-treated PAs): increased
Load borne by elastic fibers (human PAs [1]; naïve PAs): increased the load borne by elastic fibers
Cytotoxicity [2]: minimal cytotoxicity
